# Laboratory results as given in publication PMC7369637, “Inhibition of Resistance-Refractory P. falciparum Kinase PKG Delivers Prophylactic, Blood Stage, and Transmission-Blocking Antiplasmodial Activity” (Cell Chemical Biology, 2020).
# “Also recorded” adds a separate entry of the source.
# Key:
# [1] = tested on: ed. Dd2-B2 TKL3I1250M+T1268R; assay: 72-h ABS assay, CRISPR/Cas9-edited double-mutant line; type: cell-based; settings: Plasmodium falciparum, parent Dd2-B2 wild-type
# From the text: Supplement mmc2.xlsx, sheet "Table S1 (I)" | column: Mean IC50
# ed. Dd2-B2 TKL3KO = assay: 72-h ABS assay, TKL3 knockout line; type: cell-based; settings: Plasmodium falciparum, parent Dd2-B2 wild-type
# Description: (§1) Synchronicity was achieved using three rounds of sorbitol treatment on early rings, spaced 48 h apart, followed by magnetic purification of segmented schizonts following the final sorbitol treatment. Parasites were highly synchronous to within a 3 h window of development. Assays were repeated on at least three independent occasions (each with technical duplicates) and statistical significance was assessed using Mann Whitney U tests.
# (§2) The resulting MMV030084-resistant parasites were cloned by limiting dilution ([Baker et al., 2017]) to obtain genetically homogenous cultures for further phenotyping and whole-genome sequencing. A second round of […]. […] Drug susceptibility of resistant lines was assessed using a 72 h ABS assay as described above, and a Mann Whitney U test was applied to assess statistically significant differences.
# (§3) A CRISPR/Cas9 targeted gene editing strategy using an all-in-one plasmid approach was applied to introduce T1268R, I1250M and T1268R+I1250M in wild-type Dd2-B2 parasites or to produce a TKL3 KO line by inserting a stop codon and frameshift at amino acid position 1268. […] WR99210 (2.5 nM) was added to the culture medium 24 h after electroporation to select for successfully transfected parasites and was maintained in the medium until edited parasites were detected. […]
# Pf NF54 female gametes = assay: Dual gamete formation assay, female gamete formation; type: cell-based, Plasmodium falciparum; settings: carry-over and wash-out
# Description: Pf NF54 gametocytes were generated as reported elsewhere ([Delves et al., 2016]). Briefly, static cultures of unsynchronized asexual parasites were continuously maintained as above. Parasites were cultured at 1% ring-stage parasitemias and 4% (v/v) hematocrit prior to the induction of gametocytes. To prepare gametocytes, 75% of the media was replaced daily for 14 subsequent days without adding fresh RBCs. During this process the temperature was kept strictly constant, as the rate of exflagellation is highly temperature-dependent. Between days 1 and 4 after culture induction, the asexual parasitemias increased rapidly to a peak. By day 7, as the asexual population waned, early-stage gametocytes became observable. By day 8, gametocyte maturation had progressed, and by day 14 morphologically distinguishable, mature stage V male and female gametocytes were present. […] Control reactions contained DMSO or 20 μM methylene blue (as negative and positive controls, respectively). […] After imaging, the plate was incubated at 18°C for a further 24 h to allow female gametes to maximally express Pfs25, followed by fluorescence microscopy imaging using a 10× objective. Both time lapse images of exflagellation and fluorescence images of female gametes were automatically quantified using custom scripts in ICY BioImage Analysis ([Delves et al., 2016]).
# ed. Dd2-B2 TKL3I1250M = assay: 72-h ABS assay, CRISPR/Cas9-edited line; type: cell-based; settings: Plasmodium falciparum, parent Dd2-B2 wild-type
# Description: as §1, §2, §3
# ed. Dd2-B2 TKL3T1268R = assay: 72-h ABS assay, CRISPR/Cas9-edited line; type: cell-based; settings: Plasmodium falciparum, parent Dd2-B2 wild-type
# Description: as §1, §2, §3
structure (smiles),measurement,setting,value
CC(C)(CN)c1nc(-c2ccc(Cl)c(O)c2)c(-c2ccncc2)[nH]1 [MMV030084],IC50,[1],347 nM
same,IC50,ed. Dd2-B2 TKL3KO,376 nM
same,Activity against female gametes,Pf NF54 female gametes,ambiguous results; also recorded: little to no activity
same,IC50,ed. Dd2-B2 TKL3I1250M,307 nM
same,IC50,ed. Dd2-B2 TKL3T1268R,317 nM
